Test system: NO production by RAW264.7 cell
Assay: NO production-inhibiting effect in RAW264.7 cells (nitrite ion by DAN fluorescence)
Format: cell-based, mouse
Conditions: Mus musculus, RAW264.7, RAW264.7; LPS 5 ng/ml + interferon gamma 1 U/ml; nitrite ion in culture supernatant after overnight incubation
Experimental: Mouse macrophage cell line RAW264.7 was used as an iNOS-inducible cell and a test compound was examined for its % inhibition of NO production. The test compound was dissolved at 10 mM in N,N-dimethylformamide and diluted with an RPMI-1640 medium at the concentration of 0.1 mM. The concentration was further adjusted using the medium so that a final concentration ranging from 10 μM to 10 nM could be obtained by a 10-fold serial dilution and the test compound was added to a culture medium. On the day before the experiment, the cell was adjusted at 5×10^5/ml in an RPMI-1640 medium supplemented with 10% inactivated fetal calf serum and inoculated to a 96-well microplate at 1×10^5 cells/0.2 ml per well. After incubating at 37° C. under an atmosphere of 5% CO2/95% air overnight, the test compound adjusted as described above was added and then LPS and interferon gamma were added at the final concentrations of 5 ng/ml and 1 U/ml, respectively. After further incubating overnight, culture supernatants were examined for the concentration of nitrite ion (stable metabolite of NO) which was used as an index for the NO production. The nitrite ion concentration was determined by adding 25 μl of 20 μg/ml of 2,3-diaminonaphthalene (DAN) to 50 μl of the culture supernatant, followed by incubating at room temperature for 10 minutes, followed by adding 25 μl of 0.5 N NaOH, followed by determining a fluorescence at 450 nm (excitation wavelength: 365 nm). An IC50 represents the concentration of the test compound which inhibits 50% of the NO production.

Compound | IC50
COc1ccc(N2C(=O)C3=C(CCCC3)S2(=O)=O)cc1 [Compound 67, 2-(4-methoxyphenyl)-4,5,6,7-tetrahydro-1,2-benzoisothiazole-3(2H)-one 1,1-dioxide] | 6 µM
CCOC(=O)C1=CCCCC1S(=O)(=O)Nc1c(F)cccc1F (stereo not shown) [Compound 13, ethyl 6-[N-(2,6-difluorophenyl)sulfamoyl]-1-cyclohexene-1-carboxylate] | 0.46 µM
CCOC(=O)C1=C(S(=O)(=O)Nc2ccc(F)cc2F)CCC1 [Compound 66, ethyl 2-[N-(2,4-difluorophenyl)sulfamoyl]-1-cyclopentene-1-carboxylate] | 8.1 µM
CCOC(=O)C1=C(S(=O)(=O)Nc2ccc(F)cc2)CCCC1 [Compound 18, ethyl 2-[N-(4-fluorophenyl)sulfamoyl)-1-cyclohexene-1-carboxylate] | 4.4 µM
CCOC(=O)C1=CCCCC1S(=O)(=O)Nc1ccc(-n2ccnn2)cc1 (stereo not shown) [Compound 49, ethyl 6-[N-[4-(1H-1,2,3-triazol-1-yl)phenyl)sulfamoyl]-1-cyclohexene-1-carboxylate] | 5.6 µM
O=C(OCc1ccccc1)C1=CCCCC1S(=O)(=O)Nc1ccc(F)cc1F (stereo not shown) [Compound 52, benzyl 6-[N-(2,4-difluorophenyl)sulfamoyl]-1-cyclohexene-1-carboxylate] | 4.3 µM
CCOC(=O)C1=CCCCC1S(=O)(=O)Nc1c(Cl)cccc1Cl (stereo not shown) [Compound 47, ethyl 6-[N-(2,6-dichlorophenyl)sulfamoyl]-1-cyclohexene-1-carboxylate] | 0.048 µM
CCOC(=O)C1=CCCCC1S(=O)(=O)Nc1c(C(C)C)cccc1C(C)C (stereo not shown) [Compound 4, ethyl 6-[N-(2,6-diisopropylphenyl)sulfamoyl]-1-cyclohexene-1-carboxylate] | 2.6 µM
CCOC(=O)C1=CCCCC1S(=O)(=O)Nc1ccc(F)cc1 (stereo not shown) [Compound 12, ethyl 6-[N-(4-fluorophenyl)sulfamoyl)-1-cyclohexene-1-carboxylate] | 0.18 µM
CCOC(=O)C1=CCCCC1S(=O)(=O)Nc1ccc(Br)cc1F (stereo not shown) [Compound 34, ethyl 6-[N-(4-bromo-2-fluorophenyl)sulfamoyl]-1-cyclohexene-1-carboxylate] | 0.35 µM
CCOC(=O)C1=CCCCC1S(=O)(=O)Nc1ccc(C(=O)OC)cc1 (stereo not shown) [Compound 51, ethyl 6-(N-(4-methoxycarbonylphenyl)sulfamoyl]-1-cyclohexene-1-carboxylate] | 4 µM
CCOC(=O)C1=CCCCC1S(=O)(=O)Nc1ccc(CNC(=NC(=O)OC(C)(C)C)NC(=O)OC(C)(C)C)cc1 (stereo not shown) [Compound 53, ethyl 6-[N-[4-[2,3-bis(t-butoxycarbonyl)guanidinomethyl]phenyl]sulfamoyl]-1-cyclohexene-1-carboxylate] | 2.4 µM
CCOC(=O)C1=CCCCC1S(=O)(=O)N(C)c1ccc(Cl)cc1F (stereo not shown) [Compound 2, ethyl 6-[N-(4-chloro-2-fluorophenyl)-N-methylsulfamoyl]-1-cyclohexene-1-carboxylate] | 1.1 µM
CCOC(=O)C1=CCCCC1S(=O)(=O)Nc1cccc(F)c1F (stereo not shown) [Compound 14, ethyl 6-[N-(2,3-difluorophenyl)sulfamoyl]-1-cyclohexene-1-carboxylate] | 0.59 µM
CCOC(=O)C1=CCCCC1S(=O)(=O)Nc1ccccc1Cl (stereo not shown) [Compound 28, ethyl 6-[N-(2-chlorophenyl)sulfamoyl]-1-cyclohexene-1-carboxylate] | 0.029 µM
CCOC(=O)C1=CCCCC1S(=O)(=O)Nc1ccc(C)cc1F (stereo not shown) [Compound 27, ethyl 6-[N-(2-fluoro-4-methylphenyl)sulfamoyl]-1-cyclohexene-1-carboxylate] | 0.25 µM
CCOC(=O)C1=CCCC1S(=O)(=O)Nc1ccc(F)cc1Cl (stereo not shown) [Compound 64, ethyl 5-[N-(2-chloro-4-fluorophenyl)sulfamoyl]-1-cyclopentene-1-carboxylate] | 0.25 µM
CCOC(=O)C1=CCCCC1S(=O)(=O)Nc1ccc(-n2cnnn2)cc1 (stereo not shown) [Compound 48, ethyl 6-[N-[4-(1H-tetrazol-1-yl)phenyl)sulfamoyl]-1-cyclohexene-1-carboxylate] | 3.8 µM

Compound | IC50
CCOC(=O)C1=CCCCC1S(=O)(=O)Nc1ccccc1C(=O)OC (stereo not shown) [Compound 26, ethyl 6-[N-(2-methoxycarbonylphenyl)sulfamoyl]-1-cyclohexene-1-carboxylate] | 3.3 µM
CC(C)(C)OC(=O)COC(=O)C1=CCCCC1S(=O)(=O)Nc1ccc(F)cc1F (stereo not shown) [Compound 59, t-butyl [6-[N-(2,4-difluorophenyl)sulfamoyl]-1-cyclohexen-1-yl]carbonyloxyacetate] | 0.54 µM
CCOC(=O)C1=CCCCC1S(=O)(=O)Nc1cc(F)c(F)cc1F (stereo not shown) [Compound 43, ethyl 6-[N-(2,4,5-trifluorophenyl)sulfamoyl]-1-cyclohexene-1-carboxylate] | 0.073 µM
COC(=O)C1=CCCCC1S(=O)(=O)Nc1ccc(F)cc1F (stereo not shown) [Compound 22, methyl 6-[N-(2,4-difluorophenyl)sulfamoyl]-1-cyclohexene-1-carboxylate] | 0.18 µM
CC(C)OC(=O)C1=CCCCC1S(=O)(=O)Nc1ccc(F)cc1F (stereo not shown) [Compound 25, isopropyl 6-[N-(2,4-difluorophenyl)sulfamoyl]-1-cyclohexene-1-carboxylate] | 0.32 µM
O=C(OCCO)C1=CCCCC1S(=O)(=O)Nc1ccc(F)cc1F (stereo not shown) [Compound 56, 2-hydroxyethyl 6-[N-(2,4-difluorophenyl)sulfamoyl]-1-cyclohexene-1-carboxylate] | 1 µM
CCOC(=O)CNC(=O)c1ccc(NS(=O)(=O)C2CCCC=C2C(=O)OCC)c(Cl)c1 (stereo not shown) [Compound 63, ethyl 6-[N-[2-chloro-4-(N-ethoxycarbonylmethylcarbamoyl)phenyl]sulfamoyl]-1-cyclohexene-1-carboxylate] | 8.4 µM
CC(C)COC(=O)C1=CCCCC1S(=O)(=O)Nc1ccc(F)cc1F (stereo not shown) [Compound 32, isobutyl 6-[N-(2,4-difluorophenyl)sulfamoyl]-1-cyclohexene-1-carboxylate] | 0.23 µM
CCOC(=O)C1=C(S(=O)(=O)Nc2ccccc2)CCCC1 [Compound 7, ethyl 2-(N-phenylsulfamoyl)-1-cyclohexene-1-carboxylate] | 4 µM
CCOC(=O)C1=CCCCC1S(=O)(=O)Nc1ccccc1C(=O)OCC (stereo not shown) [Compound 21, ethyl 6-[N-(2-ethoxycarbonylphenyl)sulfamoyl]-1-cyclohexene-1-carboxylate] | 2.4 µM
CCOC(=O)C1=CCCCC1S(=O)(=O)Nc1ccc(C(=O)OC)cc1Cl (stereo not shown) [Compound 54, ethyl 6-[N-(2-chloro-4-methoxycarbonylphenyl)sulfamoyl]-1-cyclohexene-1-carboxylate] | 2.3 µM
CCOC(=O)C1=CCCCC1S(=O)(=O)Nc1ccc(-n2ncnn2)cc1 (stereo not shown) [Compound 44, ethyl 6-[N-[4-(2H-tetrazol-2-yl)phenyl)sulfamoyl]-1-cyclohexene-1-carboxylate] | 3.7 µM
O=C1C2=CCCCC2S(=O)(=O)N1c1ccc(F)cc1F (stereo not shown) [Compound 70, 2-(2,4-difluorophenyl)-5,6,7,7a-tetrahydro-1,2-benzoisothiazol-3(2H)-one 1,1-dioxide] | 0.35 µM
COC(=O)C1=CCCCC1S(=O)(=O)Nc1ccc(Cl)cc1F (stereo not shown) [Compound 24, methyl 6-[N-(4-chloro-2-fluorophenyl)sulfamoyl]-1-cyclohexene-1-carboxylate] | 0.78 µM
CCOC(=O)C1=CCCCC1S(=O)(=O)Nc1cc(F)cc(F)c1 (stereo not shown) [Compound 17, ethyl 6-[N-(3,5-difluorophenyl)sulfamoyl]-1-cyclohexene-1-carboxylate] | 2.6 µM
CCOC(=O)C1=CCCCC1S(=O)(=O)Nc1ccc(-n2nccn2)cc1 (stereo not shown) [Compound 40, ethyl 6-[N-[4-(2H-1,2,3-triazol-2-yl)phenyl)sulfamoyl]-1-cyclohexene-1-carboxylate] | 2.5 µM
CCOC(=O)C1=C(S(=O)(=O)Nc2ccc(OC)cc2)CCCC1 [Compound 8, ethyl 2-[N-(4-methoxyphenyl)sulfamoyl]-1-cyclohexene-1-carboxylate] | 4.8 µM
O=C1C2=C(CCCC2)S(=O)(=O)N1c1ccc(OCC(F)(F)C(F)(F)F)cc1 [Compound 69, 2-[4-(2,2,3,3,3-pentafluoropropoxy)phenyl]-4,5,6,7-tetrahydro-1,2-benzisothiazol-3(2H)-one 1,1-dioxide] | 6.8 µM

Same assay, conditions: Mus musculus; RAW264.7; LPS 5 ng/ml + interferon gamma 1 U/ml; nitrite ion in culture supernatant after overnight incubation

Compound | IC50
CCOC(=O)C1=CCCCC1S(=O)(=O)Nc1ccc([N+](=O)[O-])cc1 (stereo not shown) [Compound 5, ethyl 6-[N-(4-nitrophenyl)sulfamoyl]-1-cyclohexene-1-carboxylate] | 3.7 µM
CCOC(=O)C1=CCCCC1S(=O)(=O)Nc1ccc(Cl)cc1 (stereo not shown) [Compound 30, ethyl 6-[N-(4-chlorophenyl)sulfamoyl]-1-cyclohexene-1-carboxylate] | 0.54 µM

Same assay, conditions: RAW264.7; LPS 5 ng/ml + interferon gamma 1 U/ml; nitrite ion in culture supernatant after overnight incubation

Compound | IC50
CCOC(=O)C1=CCCCC1S(=O)(=O)Nc1ccc(F)cc1F (stereo not shown) [Compound 19, 1-ethyl 6-[N-(2,4-difluorophenyl)sulfamoyl]-1-cyclohexene-1-carboxylate] | 2 µM
ethyl 6-[N-3-fluorophenyl]sulfamoyl)-1-cyclohexene-1-carboxylate [Compound 11] | 0.31 µM
